BindingDB's records for doi:10.1021/jm00108a008 (University of Minnesota, 1991)
pKi: −log10 of the molar value.

Columns and labels:
[1] = Binding affinity against Opioid receptor delta 1 was measured in the guinea pig brain membranes using [3H]DADLE in the presence of 1 uM unlabeled DAMGO as radioligand
[2] = as above; remark: listed apart in the source

Structure (SMILES)	pKi [1]	pKi [2]
Oc1ccc2c3c1O[C@H]1C4=C(C[C@@]5(O)C(C2)N(CC2CC2)CC[C@]315)C(c1ccccc1)C1=C(O4)[C@@H]2Oc3c(O)ccc4c3[C@@]23CCN(CC2CC2)C(C4)[C@]3(O)C1 (some centres not stated) [bis(4-cyclopropylmethyl-12-oxa-4-azapentacyclo[9.6.1.01,13.05,17.07,18]octadeca-7(18),8,10,14-tetraene-10,17-diol)4-phenyl-4H-pyran]	8.00	
Oc1ccc2c3c1O[C@H]1c4sc5c(c4C[C@@]4(O)C(C2)N(CC2CC2)CC[C@]314)C[C@@]1(O)C2Cc3ccc(O)c4c3[C@@]1(CCN2CC1CC1)[C@H]5O4 [bis(4-cyclopropylmethyl-12-oxa-4-azapentacyclo[9.6.1.01,13.05,17.07,18]octadeca-7(18),8,10,14-tetraene-10,17-diol)thiphene]		7.11
